Laboratory results reported in patent publication US20190284129A1, “LIPID COMPOUNDS AND COMPOSITIONS AND THEIR OPTHALMIC USE” (BIOZEP AS, priority 2015, published 2019).

What was measured:
human PPARbeta/delta = target: T1, human PPARbeta/delta (Homo sapiens, UniProt Q03181); assay: cellular GAL4 reporter gene assay, agonist mode, PPARbeta/delta; format: cell-based
T1 construct: expressed in transfected cells; host or cells: HEK293 (DSMZ ACC 305)
T1 sequence (Q03181 211-439 limits assumed): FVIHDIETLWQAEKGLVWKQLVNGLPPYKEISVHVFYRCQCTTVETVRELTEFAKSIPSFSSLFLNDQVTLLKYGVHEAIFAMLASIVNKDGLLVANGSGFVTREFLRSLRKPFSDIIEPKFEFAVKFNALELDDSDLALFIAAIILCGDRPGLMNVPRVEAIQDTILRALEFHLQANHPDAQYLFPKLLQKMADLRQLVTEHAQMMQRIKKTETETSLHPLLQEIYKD
Text: The assays were done in HEK293 cells (DSMZ ACC 305). The plasmids used in the GAL4 assay system were derivatives of Stratagene's […] plasmids: the reporter plasmid pFR-Luc (containing a synthetic promoter with five tandem repeats of the yeast GAL4 binding sites that control expression of the Photinus pyralis (American firefly) luciferase gene), and pCMV-BD (for fusions of nuclear receptor ligand binding domains to the DNA-binding domain of the yeast protein GAL4). In order to improve experimental accuracy, a second reporter-Renilla reniformis luciferase, driven by a constitutive promoter-was included as an internal control. Using the control reporter (Renilla Luciferase) allowed corrections for variations in experimental handling, e.g. transfection efficacy, cell viability, pipetting errors, cell lysis efficiency and assay efficiency. […] The compounds BIZ-102 and BIZ-103 were tested at the human PPARbeta/delta and PPARgamma receptors using the same cellular GAL4 Reporter gene assays as in Example 6. The assays were run in agonist mode to detect agonistic activities of the tested compounds.

ARPE-19 cells = assay: oxidative stress (tert-butyl hydroperoxide) cytolysis assay in ARPE-19 retinal pigment epithelial cells; format: cell-based; settings: for inhibition of the cytotoxicity induced by t-BHP: BIZ-102 10 μM
Procedure: In order to evaluate the potential of BIZ-101 to protective the eye from oxidative stress damage the compound was tested in a cell based assay. Oxidative stress was induced in an ARPE-19 cell line using tert-butyl hydroperoxide at different concentrations. The cellular viability was kinetically monitored and measured by analysing the plasma membrane integrity based on the incorporation of a non-permeant and fluorescent DNA intercalating agent that selectively stain cytolytic cells with comprised plasma membranes.
(§1) The ARPE-19 cell line was seeded and cultured in DMEM-F12 medium+10% SVF for 24 hrs in a 96 well plate. Cells were pre-treated or not with either fenofibric acid (25 μM) or compound BIZ-101 (10 μM) during this 24 hr period. After 24 hrs, the different concentrations of t-butyl hydroperoxide were added in the presence of a fluorescent DNA intercalating agent for the following monitoring. Live content time-lapse imaging was performed with a sampling rate of 1 image every 2 hr over a 96 hrs period. The number of fluorescent/cytolytic cells were counted and reported during the experiment. The treatment conditions were tested in one experiment session in a triplicate format.
Fenofibric acid was used at 25 μM and was ordered from Sigma Aldrich. The day of the pre-treatment, a 25 mM stock solution of fenofibric acid was prepared in DMSO and diluted in the complete culture medium at 25 μM. 100 μL of this solution or 100 μL of complete culture medium+0.1% DMSO replaced the 100 μL of the complete culture medium already present in the well. The day of the treatment with t-butyl hydroperoxide, a 2 times concentrated solution of fenofibric acid was freshly diluted in the complete culture medium and 50 μL of this solution or 50 μL of complete culture medium+0.2% DMSO were added to the 100 μL of the culture medium already present in the well.
Compound BIZ-101 was tested at a final concentration of 10 μM. A 10 mM predilution was prepared in DMSO from a 10 mM stock solution. The 10 mM solution of BIZ 101 was diluted in the complete culture medium at 10 μM. 100 μL, of this solution or 100 μL of the complete culture medium+0.1% DMSO replaced the 100 μL, of the complete culture medium already present in the well. The day of the treatment with t-butyl hydroperoxide, a 2 times concentrated solution of BIZ 101 was freshly diluted in the complete culture medium and 50 μL of this solution or 50 μL of complete culture medium+0.2% DMSO were added to the 100 μL of the culture medium already present in the well.
Preparation of the tert-butyl hydroperoxide [tBHP] solution: 0, 0.01 mM, 0.03 mM, 0.1 mM, 0.3 mM, 1 mM, 3 mM and 10 mM. A 4 times concentrated solution of tBHP was freshly diluted in the complete culture medium for each of the concentrations to be tested. 50 μL of the 4 times concentrated solution was added to the 150 μL of the cultured medium.
In order to evaluate the potential of BIZ-102 to protect the eye from oxidative stress damage the compound was tested in a cell based assay similar to Example 24 with the following changes. The oxidative stress in the ARPE-19 cell line was induced by using 3 different concentrations of tBHP: 10 μM, 30 μM and 100 μM and BIZ-102 was tested in 2 different concentrations: 1 μM and 10 μM.
as §1, with “with” for “with either fenofibric acid (25 μM) or”, “BIZ-102 (1 μM and 10” for “BIZ-101 (10”
Compound BIZ-102 was tested at a final concentration of 1 and 10 μM. […]

Compound: CCCCC/C=C\C/C=C\C/C=C\C/C=C\CCC(CC)C(=O)O (centres unmarked) [BIZ-102, (All-Z) 2-ethyl-5,8,11,14-eicosatetraenoic Acid]
- EC50 (human PPARbeta/delta): 4.3 µM
- PPARbeta/delta efficacy vs. GW501516 (human PPARbeta/delta): 20%
- inhibition of the cytotoxicity induced by t-BHP (ARPE-19 cells; 10 μM t-BHP, FIG. 9A): significant inhibition
- inhibition of the cytotoxicity induced by t-BHP (ARPE-19 cells; 30 μM t-BHP, FIG. 9B): significant inhibition
- effect on retinal pigment epithelial cells during conditions of oxidative stress (ARPE-19 cells; overall conclusion): protective effect
